Read-outs that look alike come from different tables or passages of the source. Bounds are passed on as bounds.

The results in this text go back to patent US20090281099A1, “SUBSTITUTED PYRAZINONE DERIVATIVES FOR USE AS A MEDICINE” (priority 2006, published 2009).

One assay has as its target T1, hα2A receptor (Homo sapiens, UniProt P08913).
T1 construct: expressed in transfected cells
T1 sequence (P08913 1-465): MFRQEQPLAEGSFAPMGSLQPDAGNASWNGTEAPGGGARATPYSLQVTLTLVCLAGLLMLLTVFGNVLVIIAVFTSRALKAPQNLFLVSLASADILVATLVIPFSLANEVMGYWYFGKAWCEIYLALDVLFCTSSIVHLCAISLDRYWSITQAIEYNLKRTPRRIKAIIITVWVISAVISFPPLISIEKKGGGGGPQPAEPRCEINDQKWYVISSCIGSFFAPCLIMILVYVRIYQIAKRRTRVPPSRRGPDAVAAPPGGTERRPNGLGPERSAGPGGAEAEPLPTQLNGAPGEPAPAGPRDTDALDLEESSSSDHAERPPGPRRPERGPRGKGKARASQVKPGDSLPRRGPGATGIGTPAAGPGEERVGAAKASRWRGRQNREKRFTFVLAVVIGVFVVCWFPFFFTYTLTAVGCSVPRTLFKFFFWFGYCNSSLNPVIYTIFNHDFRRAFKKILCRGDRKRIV
The assay is described as follows: Radioligand binding experiment for hα2A receptor ([3H]-raulwolscine, CHO cell membranes). The conditions noted are these: read-out: h-α2A pIC50 (converted).

A further assay addresses T2, hα2C receptor (Homo sapiens, UniProt P18825).
T2 construct: expressed in transfected cells
T2 sequence (P18825 1-462): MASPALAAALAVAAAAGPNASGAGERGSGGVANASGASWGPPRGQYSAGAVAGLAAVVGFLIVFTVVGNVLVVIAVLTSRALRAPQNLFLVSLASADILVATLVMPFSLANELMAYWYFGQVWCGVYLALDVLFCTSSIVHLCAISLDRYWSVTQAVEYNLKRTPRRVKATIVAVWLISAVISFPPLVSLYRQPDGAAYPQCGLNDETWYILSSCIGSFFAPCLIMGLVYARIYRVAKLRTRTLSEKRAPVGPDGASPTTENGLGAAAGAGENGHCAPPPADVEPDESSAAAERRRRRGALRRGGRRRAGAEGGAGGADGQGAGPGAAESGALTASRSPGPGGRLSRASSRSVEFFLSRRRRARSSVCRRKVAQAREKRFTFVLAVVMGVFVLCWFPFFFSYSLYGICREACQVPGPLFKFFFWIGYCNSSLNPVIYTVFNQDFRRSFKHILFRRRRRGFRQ
The assay is described as follows: Radioligand binding experiment for α2C-adrenoceptor ([3H]-raulwolscine, CHO cell membranes). The conditions noted are these: read-out: h-α2C pIC50 (converted).

A further assay deals with T3, 5HT-Transporter (Homo sapiens, UniProt P31645).
T3 construct: Human platelet membranes (Oceanix Biosciences Corporation, Hanover, Md., USA) were thawed; tissue Oceanix Biosciences Corporation; host or cells: human platelet membranes
T3 sequence (P31645 whole entry): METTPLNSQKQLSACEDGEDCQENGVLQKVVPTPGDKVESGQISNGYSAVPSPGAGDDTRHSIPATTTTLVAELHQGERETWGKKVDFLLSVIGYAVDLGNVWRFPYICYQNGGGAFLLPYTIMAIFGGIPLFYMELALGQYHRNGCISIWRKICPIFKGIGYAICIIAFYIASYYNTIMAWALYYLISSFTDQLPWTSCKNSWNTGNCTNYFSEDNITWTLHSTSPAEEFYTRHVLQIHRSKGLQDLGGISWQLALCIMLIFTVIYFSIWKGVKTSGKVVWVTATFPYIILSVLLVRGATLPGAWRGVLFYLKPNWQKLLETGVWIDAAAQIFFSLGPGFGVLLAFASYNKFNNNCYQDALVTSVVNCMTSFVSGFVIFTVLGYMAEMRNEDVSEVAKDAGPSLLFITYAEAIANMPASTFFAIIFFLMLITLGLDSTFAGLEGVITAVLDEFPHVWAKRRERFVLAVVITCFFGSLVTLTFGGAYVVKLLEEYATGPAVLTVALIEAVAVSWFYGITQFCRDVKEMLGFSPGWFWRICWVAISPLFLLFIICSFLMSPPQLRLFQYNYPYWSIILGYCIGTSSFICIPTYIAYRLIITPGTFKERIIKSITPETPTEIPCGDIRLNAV
The assay is described as follows: Binding experiment for the 5HT-transporter ([3H]paroxetine, human platelet membranes). The conditions noted are these: [3H]paroxetine 0.5 nM, read-out: h-5HTT pIC50 (converted).

Where [1] appears, read: [3H]raulwolscine 1 nM, membranes of CHO cells transfected with human α2A receptor.
The mark [2] stands for this setting: [3H]raulwolscine 1 nM, membranes of CHO cells transfected with human α2C receptor.

For the compound `O=c1c(N2CCN(CCOc3ccc(F)cc3)CC2)nccn1CCOc1ccccc1` [Compound 9-2], the IC50 was 200 nM at hα2A receptor (setting [1]), 251 nM on hα2C receptor (setting [2]) and 2510 nM at 5HT-Transporter.
For the compound `O=C(Cn1ccnc(NC2CCN(CCOc3ccccc3)CC2)c1=O)N1CCN(Cc2ccccc2)CC1` [Compound 2-12], the IC50 on hα2A receptor was 200 nM; on hα2C receptor it was 2.51 nM; on 5HT-Transporter it was 6310 nM.
`O=C(Cn1ccnc(NC2CCN(CCOc3ccccc3)CC2)c1=O)N1CCC(C(F)(F)F)CC1` [Compound 2-6]: the IC50 on hα2A receptor (setting [1]) was 100 nM; at hα2C receptor (setting [2]), 3.98 nM; on 5HT-Transporter, > 10000 nM.
For the compound `Cc1nc(Cn2ccnc(N3CCN(CCOc4ccc(F)cc4)CC3)c2=O)cs1` [Compound 12-3], the IC50 at hα2A receptor (setting [1]) was 251 nM; on hα2C receptor (setting [2]), 316 nM; on 5HT-Transporter, > 10000 nM.
For `O=C(Cn1ccnc(NC2CCN(CCOc3ccccc3)CC2)c1=O)N1CCC(N2CCCC2)CC1` [Compound 2-8], in that order: 79.4 nM, 2.51 nM and > 10000 nM.
For `CN(C)CCCn1ccnc(NC2CCN(CCOc3ccccc3)CC2)c1=O` [Compound 1-4], in that order: 200 nM, 3.98 nM and > 10000 nM.
As to `O=c1c(N2CCN(CCOc3ccc(F)cc3)CC2)nccn1CCN1CCCCC1` [Compound 8-1], the IC50 at hα2A receptor (setting [1]) is 631 nM; at hα2C receptor (setting [2]) it was 100 nM; on 5HT-Transporter, 7940 nM.
For `O=c1c(NC2CCN(CCOc3ccccc3)CC2)nccn1-c1cccc(NCc2ccccc2)c1` [Compound 1-12], the IC50 at hα2A receptor (setting [1]) was 50.1 nM; at hα2C receptor (setting [2]) it was 3.98 nM; at 5HT-Transporter it was 2510 nM.
As for `CN(C(=O)Cn1ccnc(NC2CCN(CCOc3ccccc3)CC2)c1=O)c1ccccc1` [Compound 1-9], the IC50 at hα2A receptor (setting [1]) is 100 nM; on hα2C receptor (setting [2]), 3.16 nM; on 5HT-Transporter, 3980 nM.
For `O=c1c(NC2CCN(CCOc3ccccc3)CC2)nccn1CC1CCCCC1` [Compound 5-3], in that order: 251 nM, 25.1 nM and 1000 nM.
On the same counts, the results for `O=C(Cn1ccnc(NC2CCN(CCOc3ccccc3)CC2)c1=O)NCCCc1ccccc1` [Compound 1-17] are 316 nM, 12.6 nM and 2510 nM.
On the same counts, the results for `O=c1c(N2CCN(CCOc3ccc(F)cc3)CC2)nccn1C/C=C/c1ccccc1` [Compound 11-4] are 251 nM, 200 nM and 1580 nM.
As for `COCCn1ccnc(NC2CCN(CCOc3ccccc3)CC2)c1=O` [Compound 3-1], the IC50 on hα2A receptor (setting [1]) was 631 nM; on hα2C receptor (setting [2]) it was 50.1 nM; on 5HT-Transporter it was > 10000 nM.
Take `O=c1c(NC2CCN(CCOc3ccccc3)CC2)nccn1CCc1ccccc1` [Compound 4-4]: the IC50 was 158 nM on hα2A receptor (setting [1]), 15.8 nM on hα2C receptor (setting [2]) and 6310 nM on 5HT-Transporter.
On the same counts, the results for `CC(C)(C)C(=O)Cn1ccnc(NC2CCN(CCOc3ccccc3)CC2)c1=O` [Compound 5-5] are 158 nM, 7.94 nM and > 10000 nM.
On to `O=C(Cn1ccnc(NC2CCN(CCOc3ccccc3)CC2)c1=O)NCC(c1ccccc1)c1ccccc1` [Compound 1-19], for which the IC50 at hα2A receptor (setting [1]) was 158 nM; on hα2C receptor (setting [2]), 5.01 nM; at 5HT-Transporter, 3160 nM.
For `CN(C)C(=O)Cn1ccnc(NC2CCN(CCOc3ccccc3)CC2)c1=O` [Compound 1-5], in that order: 501 nM, 39.8 nM and > 10000 nM.
For `COc1ccc(-c2nnc(Cn3ccnc(N4CCN(CCOc5ccc(F)cc5)CC4)c3=O)o2)cc1` [Compound 12-4], in that order: 158 nM, 158 nM and 794 nM.
On the same counts, the results for `NCc1ccc(Cn2ccnc(NC3CCN(CCOc4ccccc4)CC3)c2=O)cc1` [Compound 1-2] are 15.8 nM, 1.58 nM and 7940 nM.
As for `O=C(Cn1ccnc(NC2CCN(CCOc3ccccc3)CC2)c1=O)N1CCCCC1` [Compound 2-3], the IC50 is 251 nM on hα2A receptor (setting [1]), 7.94 nM at hα2C receptor (setting [2]) and > 10000 nM on 5HT-Transporter.
As for `CN(C)CCn1ccnc(NC2CCN(CCOc3ccccc3)CC2)c1=O` [Compound 1-3], the IC50 on hα2A receptor (setting [1]) was 158 nM; on hα2C receptor (setting [2]) it was 20 nM; at 5HT-Transporter it was > 10000 nM.
For `O=C(Cn1ccnc(NC2CCN(CCOc3ccccc3)CC2)c1=O)NCc1ccccc1` [Compound 1-11], in that order: 251 nM, 6.31 nM and 7940 nM.
On the same counts, the results for `O=C(Cn1ccnc(NC2CCN(CCOc3ccccc3)CC2)c1=O)c1ccccc1` [Compound 4-6] are 39.8 nM, 10 nM and 5010 nM.
On the same counts, the results for `O=c1c(N2CCN(CCOc3ccc(F)cc3)CC2)nccn1CCOCc1ccccc1` [Compound 9-3] are 501 nM, 251 nM and 3980 nM.
`O=C(Cn1ccnc(NC2CCN(CCOc3ccccc3)CC2)c1=O)Nc1ccccc1` [Compound 1-8]: the IC50 was 158 nM on hα2A receptor (setting [1]), 5.01 nM on hα2C receptor (setting [2]) and 6310 nM on 5HT-Transporter.
For `O=c1c(NC2CCN(CCOc3ccccc3)CC2)nccn1Cc1ccc(Br)cc1` [Compound 4-3], in that order: 100 nM, 20 nM and 794 nM.
On the same counts, the results for `CN(C(=O)Cn1ccnc(NC2CCN(CCOc3ccccc3)CC2)c1=O)C1CCCCC1` [Compound 1-6] are 126 nM, 2 nM and 7940 nM.
As to `NCCCn1ccnc(NC2CCN(CCOc3ccccc3)CC2)c1=O` [Compound 1-1], the IC50 was 126 nM at hα2A receptor (setting [1]), 7.94 nM at hα2C receptor (setting [2]) and > 10000 nM on 5HT-Transporter.
On the same counts, the results for `CCOC(=O)CCCCn1ccnc(NC2CCN(CCOc3ccccc3)CC2)c1=O` [Compound 3-3] are 251 nM, 15.8 nM and 3160 nM.
For `COC(=O)Cn1ccnc(NC2CCN(CCOc3ccccc3)CC2)c1=O` [Compound 3-2], in that order: 158 nM, 25.1 nM and > 10000 nM.
For `O=C(Cn1ccnc(NC2CCN(CCOc3ccccc3)CC2)c1=O)NCc1ccc(F)cc1` [Compound 1-14], in that order: 251 nM, 2.51 nM and 7940 nM.
`CC(C)(C)OC(=O)NCCCn1ccnc(NC2CCN(CCOc3ccccc3)CC2)c1=O` [Compound 1-20]: the IC50 at hα2A receptor (setting [1]) is 126 nM; at hα2C receptor (setting [2]), 2.51 nM; on 5HT-Transporter it was 6310 nM.
On the same counts, the results for `O=c1c(N2CCN(CCOc3ccc(F)cc3)CC2)nccn1Cc1ccccc1` [Compound 11-1] are 100 nM, 200 nM and > 10000 nM.
For `O=c1c(N2CCN(CCOc3ccc(F)cc3)CC2)nccn1Cc1ccc2ccccc2c1` [Compound 11-8], in that order: 126 nM, 126 nM and 2000 nM.
For `NCc1ccc(Cn2ccnc(N3CCN(CCOc4ccc(F)cc4)CC3)c2=O)cc1` [Compound 7-1], in that order: 158 nM, 63.1 nM and 1260 nM.
For the compound `CCCn1ccnc(NC2CCN(CCOc3ccccc3)CC2)c1=O` [Compound 5-2], the IC50 is 100 nM at hα2A receptor (setting [1]), 15.8 nM on hα2C receptor (setting [2]) and > 10000 nM on 5HT-Transporter.
For `O=c1c(NC2CCN(CCOc3ccccc3)CC2)nccn1Cc1ccccc1Br` [Compound 4-1], in that order: 158 nM, 7.94 nM and 2510 nM.
For `O=c1c(NC2CCN(CCOc3ccccc3)CC2)nccn1Cc1ccncc1` [Compound 6-2], in that order: 398 nM, 39.8 nM and > 10000 nM.
For `O=c1c(N2CCN(CCOc3ccc(F)cc3)CC2)nccn1Cc1ccco1` [Compound 12-1], in that order: 200 nM, 251 nM and > 10000 nM.
